Measurements: US8889667B2 (Agios Pharmaceuticals, Inc, priority 2010, dated 2014)

What follows are compounds tested against PKM2 (Homo sapiens, UniProt P14618) (assay: PKM2 Assay (activation, LDH-coupled, absorbance at 340 nm)). Details: Table 4.
Type: biochemical
Protocol: • PKM2 stock enzyme solution was diluted in Reaction Buffer • 2 μL of compound was added into each well first, and then 180 μL of the Reaction Mix was added. • Reaction mixture with compound (without ADP) was incubated for 30 minutes at 4° C. • Plates were re-equilibrated to room temperature prior to adding 20 μL ADP to initiate the reaction. • Reaction progress was measured as changes in absorbance at 340 nm wavelength at room temperature (25° C.) Reaction Mix: PKM2 (50 ng/well), ADP (0.7 mM), PEP (0.15 mM), NADH (180 μM), LDH (2 units) in Reaction Buffer Reaction Buffer: 100 mM KCl, 50 mM Tris pH 7.5, 5 mM MgCl2, 1 mM DTT, 0.03% BSA.
Representative compounds of the invention were tested for their ability to activate PKM2 using the above assay. For simplicity, the activation activity of these compounds is represented as an AC50 in Tables 4 and 5 and throughout the application. […] “B” refers to an activator of PKM2 with an EC50 between 100 nM and 500 nM. “C” refers to an activator of PKM2 with an EC50 between 500 nM and 1000 nM. “D” refers to an activator of PKM2 with an EC50 between 1 μM and 20 μM. “E” refers a compound whose activation of PKM2 was not measurable. “N/C” refers to AC50 data not available.

Chain of PKM2 (P14618 whole entry): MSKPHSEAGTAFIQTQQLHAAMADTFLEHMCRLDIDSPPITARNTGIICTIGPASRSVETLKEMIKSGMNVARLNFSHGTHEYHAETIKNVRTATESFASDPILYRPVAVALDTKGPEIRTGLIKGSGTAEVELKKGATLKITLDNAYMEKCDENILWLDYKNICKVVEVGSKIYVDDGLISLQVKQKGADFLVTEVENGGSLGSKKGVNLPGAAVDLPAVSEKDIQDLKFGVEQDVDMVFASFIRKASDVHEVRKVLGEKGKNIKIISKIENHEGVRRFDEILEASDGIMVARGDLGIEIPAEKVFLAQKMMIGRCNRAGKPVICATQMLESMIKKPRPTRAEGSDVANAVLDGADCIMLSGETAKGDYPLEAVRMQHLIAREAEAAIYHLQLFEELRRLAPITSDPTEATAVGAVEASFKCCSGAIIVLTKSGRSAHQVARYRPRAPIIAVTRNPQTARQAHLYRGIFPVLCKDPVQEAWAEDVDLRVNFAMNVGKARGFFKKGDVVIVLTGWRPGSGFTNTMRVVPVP

| SMILES | AC50 |
| --- | --- |
| CC(c1cc(F)cc(F)c1)N1CCN(C(=O)c2ccc(NS(=O)(=O)c3cccc4cccnc34)cc2)[C@H](C)C1 (stereo partly drawn) [Compound 135, N-(4-((2R)-4-(1-(3,5-difluorophenyl)ethyl)-2-methylpiperazine-1-carbonyl)phenyl)quinoline-8-sulfonamide] | < 100 nM |
| CC[C@H]1CN(Cc2cc(F)cc(F)c2)CCN1C(=O)c1ccc(NS(=O)(=O)c2cccc3cccnc23)cc1 [Compound 136, (S)—N-(4-(4-(3,5-difluorobenzyl)-2-ethylpiperazine-1-carbonyl)phenyl)quinoline-8-sulfonamide] | 100 to 500 nM |
| C[C@H]1CN(Cc2cc(F)cc(F)c2F)CCN1C(=O)c1ccc(NS(=O)(=O)c2cccc3cccnc23)cc1 [Compound 137, (S)—N-(4-(2-methyl-4-(2,3,5-trifluorobenzyl)piperazine-1-carbonyl)phenyl)quinoline-8-sulfonamide] | < 100 nM |
| C[C@H]1CN(Cc2ccc(Cl)c(F)c2)CCN1C(=O)c1ccc(NS(=O)(=O)c2cccc3cccnc23)cc1 [Compound 138, (S)—N-(4-(4-(4-chloro-3-fluorobenzyl)-2-methylpiperazine-1-carbonyl)phenyl)quinoline-8-sulfonamide] | 100 to 500 nM |
| C[C@H]1CN(CC2CCOC2)CCN1C(=O)c1ccc(NS(=O)(=O)c2cccc3cccnc23)cc1 (stereo partly drawn) [Compound 139, N-(4-((2S)-2-methyl-4-((tetrahydrofuran-3-yl)methyl)piperazine-1-carbonyl)phenyl)quinoline-8-sulfonamide] | 100 to 500 nM |
| C[C@H]1CN(CC2CCCC2)CCN1C(=O)c1ccc(NS(=O)(=O)c2cccc3cccnc23)cc1 [Compound 140, (S)—N-(4-(4-(cyclopentylmethyl)-2-methylpiperazine-1-carbonyl)phenyl)quinoline-8-sulfonamide] | < 100 nM |
| C[C@H]1CN(Cc2c(F)ccc(F)c2F)CCN1C(=O)c1ccc(NS(=O)(=O)c2cccc3cccnc23)cc1 [Compound 141, (S)—N-(4-(2-methyl-4-(2,3,6-trifluorobenzyl)piperazine-1-carbonyl)phenyl)quinoline-8-sulfonamide] | 100 to 500 nM |
| C[C@H]1CN(Cc2cc(F)cc(F)c2)CCN1C(=O)c1ccc(NS(=O)(=O)c2cccc3cccnc23)cc1 [Compound 142, (S)—N-(4-(4-(3,5-difluorobenzyl)-2-methylpiperazine-1-carbonyl)phenyl)quinoline-8-sulfonamide] | < 100 nM |
| C[C@H]1CN(Cc2ccccc2F)CCN1C(=O)c1ccc(NS(=O)(=O)c2cccc3cccnc23)cc1 [Compound 143, (S)—N-(4-(4-(2-fluorobenzyl)-2-methylpiperazine-1-carbonyl)phenyl)quinoline-8-sulfonamide] | < 100 nM |
| C[C@H]1CN(CC2CC2)CCN1C(=O)c1ccc(NS(=O)(=O)c2cccc3cccnc23)cc1 [Compound 144, (S)—N-(4-(4-(cyclopropylmethyl)-2-methylpiperazine-1-carbonyl)phenyl)quinoline-8-sulfonamide] | < 100 nM |
| C[C@H]1CN(Cc2cc(F)c(F)cc2F)CCN1C(=O)c1ccc(NS(=O)(=O)c2cccc3cccnc23)cc1 [Compound 145, (S)—N-(4-(2-methyl-4-(2,4,5-trifluorobenzyl)piperazine-1-carbonyl)phenyl)quinoline-8-sulfonamide] | < 100 nM |
| COc1cccc(CN2CCN(C(=O)c3ccc(NS(=O)(=O)c4cccc5cccnc45)cc3)[C@@H](C)C2)c1OC [Compound 146, (S)—N-(4-(4-(2,3-dimethoxybenzyl)-2-methylpiperazine-1-carbonyl)phenyl)quinoline-8-sulfonamide] | 1000 to 20000 nM |
| C[C@@H]1CN(CC2CCCO2)CCN1C(=O)c1ccc(NS(=O)(=O)c2cccc3cccnc23)cc1 (stereo partly drawn) [Compound 147, N-(4-((2R)-2-methyl-4-((tetrahydrofuran-2-yl)methyl)piperazine-1-carbonyl)phenyl)quinoline-8-sulfonamide] | < 100 nM |
